For 32 compounds, IC50 results are on record in patent US10669272B2, “Substituted naphthyridinone compounds useful as T cell activators” (BRISTOL-MYERS SQUIBB COMPANY, priority 2018, dated 2020).

Read-outs that look alike come from different tables or passages of the source.

One test addresses T1, human DGKζ (Homo sapiens, UniProt Q13574).
T1 construct: TVMV protease cleavage site (C); Hexa-His (C); made in house; host or cells: Sf9 insect cells (baculovirus, Bac-to-Bac)
Put plainly: DGKζ LIPGLO assay (extruded liposome substrate), in vitro DGK inhibition. Format: biochemical. To be noted: read-out: DGKz LIPGLO IC50.

The next test deals with T2, human DGKα (Homo sapiens, UniProt P23743).
T2 construct: TVMV protease cleavage site (C); Hexa-His (C); made in house; host or cells: Sf9 insect cells (baculovirus, Bac-to-Bac)
T2 sequence (P23743 with tags, fused parts or gaps): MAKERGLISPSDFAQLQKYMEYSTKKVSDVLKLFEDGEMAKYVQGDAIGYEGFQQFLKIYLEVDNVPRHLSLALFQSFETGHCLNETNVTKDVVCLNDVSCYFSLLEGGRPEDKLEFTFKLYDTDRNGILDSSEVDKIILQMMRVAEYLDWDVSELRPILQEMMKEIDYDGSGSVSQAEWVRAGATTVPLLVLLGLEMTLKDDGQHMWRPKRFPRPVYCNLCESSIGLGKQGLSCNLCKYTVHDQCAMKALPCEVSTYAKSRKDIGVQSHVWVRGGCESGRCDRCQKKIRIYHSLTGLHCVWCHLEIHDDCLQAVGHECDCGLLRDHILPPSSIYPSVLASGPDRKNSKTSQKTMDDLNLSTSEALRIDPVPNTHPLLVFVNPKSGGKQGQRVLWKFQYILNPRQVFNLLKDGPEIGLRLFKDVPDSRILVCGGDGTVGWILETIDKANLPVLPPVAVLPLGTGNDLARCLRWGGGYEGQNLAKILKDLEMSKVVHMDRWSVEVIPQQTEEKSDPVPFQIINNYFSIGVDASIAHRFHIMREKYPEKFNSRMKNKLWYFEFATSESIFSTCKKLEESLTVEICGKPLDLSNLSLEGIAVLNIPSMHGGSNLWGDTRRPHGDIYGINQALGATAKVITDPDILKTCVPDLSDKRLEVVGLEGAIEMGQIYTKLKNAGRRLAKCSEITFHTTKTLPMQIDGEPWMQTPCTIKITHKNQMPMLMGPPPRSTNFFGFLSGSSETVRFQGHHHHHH
Put plainly: DGKα LIPGLO assay (extruded liposome substrate), in vitro DGK inhibition. Format: biochemical. To be noted: read-out: DGKa LIPGLO IC50.

T1 sequence (Q13574 with tags, fused parts or gaps isoform Q13574-4): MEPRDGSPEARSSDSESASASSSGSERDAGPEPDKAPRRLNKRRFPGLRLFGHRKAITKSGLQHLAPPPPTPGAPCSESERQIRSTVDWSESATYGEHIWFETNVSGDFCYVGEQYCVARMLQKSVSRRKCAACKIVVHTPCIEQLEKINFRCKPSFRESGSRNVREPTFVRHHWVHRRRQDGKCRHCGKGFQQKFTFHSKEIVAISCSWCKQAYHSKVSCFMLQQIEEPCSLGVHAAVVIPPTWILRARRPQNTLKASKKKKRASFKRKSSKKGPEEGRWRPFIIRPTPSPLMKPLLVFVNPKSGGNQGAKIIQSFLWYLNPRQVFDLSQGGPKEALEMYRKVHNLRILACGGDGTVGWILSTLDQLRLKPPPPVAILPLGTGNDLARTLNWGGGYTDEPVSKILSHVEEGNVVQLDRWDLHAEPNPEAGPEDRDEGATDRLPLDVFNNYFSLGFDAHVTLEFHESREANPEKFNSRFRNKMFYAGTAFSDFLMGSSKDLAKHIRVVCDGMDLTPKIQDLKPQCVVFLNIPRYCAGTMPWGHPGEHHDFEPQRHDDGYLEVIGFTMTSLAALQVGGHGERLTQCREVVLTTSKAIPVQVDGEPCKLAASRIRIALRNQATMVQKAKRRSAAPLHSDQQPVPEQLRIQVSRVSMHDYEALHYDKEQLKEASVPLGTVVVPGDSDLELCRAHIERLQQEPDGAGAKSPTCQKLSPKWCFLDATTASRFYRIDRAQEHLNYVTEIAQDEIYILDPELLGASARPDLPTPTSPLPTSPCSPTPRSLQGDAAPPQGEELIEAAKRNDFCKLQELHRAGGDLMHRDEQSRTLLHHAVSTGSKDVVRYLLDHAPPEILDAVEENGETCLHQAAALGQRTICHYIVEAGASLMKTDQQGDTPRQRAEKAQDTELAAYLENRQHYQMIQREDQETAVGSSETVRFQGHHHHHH

In the case of `C[C@@H]1CN(c2c(C#N)c(=O)n(C)c3ccc(C#N)nc23)CCN1C(c1ccc(F)cc1)c1cncnc1` (stereo partly drawn) [Example 317, 8-((3R)-4-((4-fluorophenyl)(pyrimidin-5-yl)methyl)-3-methylpiperazin-1-yl)-5-methyl-6-oxo-5,6-dihydro-1,5-naphthyridine-2,7-dicarbonitrile], the IC50 (usually the concentration needed to halve the response being measured) was 13 µM at human DGKζ (liposome (LIPGLO) assay) and 3.8 µM on human DGKα (liposome (LIPGLO) assay).

As for `CCC(c1cc(Cl)cc2c1OCC2)N1C[C@H](C)N(c2cc(=O)n(C)c3ccc(C#N)nc23)C[C@H]1C` (stereo partly drawn) [Example 353, 8-((2S,5R)-4-(1-(5-chloro-2,3-dihydrobenzofuran-7-yl)propyl)-2,5-dimethylpiperazin-1-yl)-5-methyl-6-oxo-5,6-dihydro-1,5-naphthyridine-2-carbonitrile], the IC50 was determined as 1.4 µM at human DGKζ (liposome (LIPGLO) assay) and 72 µM on human DGKα (liposome (LIPGLO) assay).

Take `C[C@@H]1CN(c2cc(=O)n(C)c3ccc(C#N)nc23)[C@@H](C)CN1C(c1cccc(F)c1)c1ccc(C(F)(F)F)cn1` (stereo partly drawn) [Example 370, 8-((2S,5R)-4-((3-fluorophenyl)(5-(trifluoromethyl)pyridin-2-yl)methyl)-2,5-dimethylpiperazin-1-yl)-5-methyl-6-oxo-5,6-dihydro-1,5-naphthyridine-2-carbonitrile]: the IC50 at human DGKζ (liposome (LIPGLO) assay) amounted to 0.76 µM; at human DGKα (liposome (LIPGLO) assay) it was 1.1 µM.

As for `C[C@@H]1CN(c2cc(=O)n(C)c3ccc(C#N)nc23)[C@@H](C)CN1C(c1ccc(OC(F)(F)F)cc1)c1ccccn1` (stereo partly drawn) [Example 377, 8-((2S,5R)-2,5-dimethyl-4-(pyridin-2-yl(4-(trifluoromethoxy)phenyl)methyl)piperazin-1-yl)-5-methyl-6-oxo-5,6-dihydro-1,5-naphthyridine-2-carbonitrile], the results for the half-maximal inhibitory concentration (IC50) at human DGKζ (liposome (LIPGLO) assay) and on human DGKα (liposome (LIPGLO) assay) were 3.9 µM and 0.31 µM, respectively.

For `Cc1ncc(C(c2ccc(Cl)cc2)N2C[C@H](C)N(c3cc(=O)n(C)c4ccc(C#N)nc34)C[C@H]2C)cn1` (stereo partly drawn) [Example 385, 8-((2S,5R)-4-((4-chlorophenyl) (2-methylpyrimidin-5-yl)methyl)-2,5-dimethylpiperazin-1-yl)-5-methyl-6-oxo-5,6-dihydro-1,5-naphthyridine-2-carbonitrile], the results for the half-inhibitory concentration (IC50) on human DGKζ (liposome (LIPGLO) assay) and at human DGKα (liposome (LIPGLO) assay) were 6.3 µM and 3.3 µM, respectively.

Consider `C[C@@H]1CN(c2cc(=O)n(C)c3ccc(C#N)nc23)[C@@H](C)CN1C(c1ccc(F)cc1)c1cncc(F)c1` (stereo partly drawn) [Example 400, 8-((2S,5R)-4-((4-fluorophenyl)(5-fluoropyridin-3-yl)methyl)-2,5-dimethylpiperazin-1-yl)-5-methyl-6-oxo-5,6-dihydro-1,5-naphthyridine-2-carbonitrile], for which the IC50 on human DGKζ (liposome (LIPGLO) assay) is 3.2 µM; on human DGKα (liposome (LIPGLO) assay), 4.2 µM.

In the case of `C[C@@H]1CN(c2cc(=O)n(C)c3ccc(C#N)nc23)[C@@H](C)CN1C(c1cccc(F)c1)c1ccccn1` (stereo partly drawn) [Example 404, 8-((2S,5R)-4-((3-fluorophenyl)(pyridin-2-yl)methyl)-2,5-dimethylpiperazin-1-yl)-5-methyl-6-oxo-5,6-dihydro-1,5-naphthyridine-2-carbonitrile], the IC50 on human DGKζ (liposome (LIPGLO) assay) worked out at 4.1 µM; at human DGKα (liposome (LIPGLO) assay) it was 0.36 µM.

Turning to `C[C@@H]1CN(c2cc(=O)n(C)c3ccc(C#N)nc23)[C@@H](C)CN1C(c1ccc(OC(F)(F)F)cc1)c1ccccn1` (stereo partly drawn) [Example 405, 8-((2S,5R)-2,5-dimethyl-4-(pyridin-2-yl(4-(trifluoromethoxy)phenyl)methyl)piperazin-1-yl)-5-methyl-6-oxo-5,6-dihydro-1,5-naphthyridine-2-carbonitrile], the half-maximal inhibitory concentration (IC50) on human DGKζ (liposome (LIPGLO) assay) is 4 µM; on human DGKα (liposome (LIPGLO) assay), 0.46 µM.

On to `C[C@@H]1CN(c2cc(=O)n(C)c3ccc(C#N)nc23)[C@@H](C)CN1C(c1ccc(C#N)cc1)c1ccc(F)cn1` (stereo partly drawn) [Example 464, 8-((2S,5R)-4-((4-cyanophenyl)(5-fluoropyridin-2-yl)methyl)-2,5-dimethylpiperazin-1-yl)-5-methyl-6-oxo-5,6-dihydro-1,5-naphthyridine-2-carbonitrile], for which the IC50 on human DGKζ (liposome (LIPGLO) assay) was 1.7 µM; at human DGKα (liposome (LIPGLO) assay), 0.28 µM.

As for `C[C@@H]1CN(c2cc(=O)n(C)c3ccc(C#N)nc23)[C@@H](C)CN1C(c1ccc(OC(F)(F)F)cc1F)C1CC1` (stereo partly drawn) [Example 481, 8-((2S,5R)-4-(cyclopropyl(2-fluoro-4-(trifluoromethoxy)phenyl)methyl)-2,5-dimethylpiperazin-1-yl)-5-methyl-6-oxo-5,6-dihydro-1,5-naphthyridine-2-carbonitrile], the half-inhibitory concentration (IC50) at human DGKζ (liposome (LIPGLO) assay) was determined as 1.8 µM; on human DGKα (liposome (LIPGLO) assay) it was 1.4 µM.

Consider `CC(c1cc(F)c(F)cc1Cl)N1C[C@H](C)N(c2cc(=O)n(C)c3ccc(C#N)nc23)C[C@H]1C` (stereo partly drawn) [Example 486, 8-((2S,5R)-4-(1-(2-chloro-4,5-difluorophenyl)ethyl)-2,5-dimethylpiperazin-1-yl)-5-methyl-6-oxo-5,6-dihydro-1,5-naphthyridine-2-carbonitrile], for which the results for the IC50 at human DGKζ (liposome (LIPGLO) assay) and at human DGKα (liposome (LIPGLO) assay) were 14 µM and 27 µM, respectively.

For the compound `COC(CN1C[C@H](C)N(c2cc(=O)n(C)c3ccc(C#N)nc23)C[C@H]1C)c1ccc(F)cc1` (stereo partly drawn) [Example 561, 8-((2S,5R)-4-(2-(4-fluorophenyl)-2-methoxyethyl)-2,5-dimethylpiperazin-1-yl)-5-methyl-6-oxo-5,6-dihydro-1,5-naphthyridine-2-carbonitrile], the IC50 on human DGKζ (liposome (LIPGLO) assay) was determined as 10 µM; on human DGKα (liposome (LIPGLO) assay), 7.1 µM.

For the compound `C[C@@H]1CN(c2c(C(F)F)c(=O)n(C)c3ccc(C#N)nc23)[C@@H](C)CN1Cc1ccc(OC(F)(F)F)cc1F` [Example 570], the IC50 on human DGKζ (liposome (LIPGLO) assay) and at human DGKα (liposome (LIPGLO) assay) was more than 250 µM throughout.

For `C[C@@H]1CN(c2cc(=O)n(C)c3ccc(C#N)nc23)[C@@H](C)CN1Cc1cccc(N(C)C)c1` [Example 573], the IC50 at human DGKζ (liposome (LIPGLO) assay) was 0.64 µM; at human DGKα (liposome (LIPGLO) assay) it was 4.3 µM.

On to `C[C@@H]1CN(c2cc(=O)n(C)c3ccc(C#N)nc23)[C@@H](C)CN1Cc1ccc(OC(F)F)cc1` [Example 588], for which the concentration for half-maximal inhibition (IC50) came to 7.4 µM on human DGKζ (liposome (LIPGLO) assay) and 0.091 µM on human DGKα (liposome (LIPGLO) assay).

For the compound `CC(C)Oc1cccc(CN2C[C@H](C)N(c3cc(=O)n(C)c4ccc(C#N)nc34)C[C@H]2C)c1` [Example 594], the IC50 at human DGKζ (liposome (LIPGLO) assay) was determined as 1.4 µM; on human DGKα (liposome (LIPGLO) assay) it was 7 µM.

On to `CC(C)Oc1ccccc1CN1C[C@H](C)N(c2cc(=O)n(C)c3ccc(C#N)nc23)C[C@H]1C` [Example 595], for which the half-maximal inhibitory concentration (IC50) on human DGKζ (liposome (LIPGLO) assay) was determined as 4.7 µM; at human DGKα (liposome (LIPGLO) assay), 0.39 µM.

On to `CC(C)Oc1cc(F)ccc1CN1C[C@H](C)N(c2cc(=O)n(C)c3ccc(C#N)nc23)C[C@H]1C` [Example 598], for which the 50% inhibitory concentration (IC50) on human DGKζ (liposome (LIPGLO) assay) was found to be 1.8 µM; at human DGKα (liposome (LIPGLO) assay) it was 0.34 µM.

As for `CCOc1cccc(CN2C[C@H](C)N(c3cc(=O)n(C)c4ccc(C#N)nc34)C[C@H]2C)c1` [Example 599], the concentration for half-maximal inhibition (IC50) on human DGKζ (liposome (LIPGLO) assay) came out at 1.9 µM; on human DGKα (liposome (LIPGLO) assay), 3.1 µM.

Turning to `Cc1cc(OC(F)(F)F)ccc1CN1C[C@H](C)N(c2cc(=O)n(C)c3ccc(C#N)nc23)C[C@H]1C` [Example 608], the half-inhibitory concentration (IC50) at human DGKζ (liposome (LIPGLO) assay) worked out at 9.2 µM; on human DGKα (liposome (LIPGLO) assay), 1.6 µM.

Take `C[C@@H]1CN(c2cc(=O)n(C)c3ccc(C#N)nc23)[C@@H](C)CN1Cc1cccc2c1OCCN2C(=O)OC(C)(C)C` [Example 630]: the concentration for half-maximal inhibition (IC50) came to 13 µM at human DGKζ (liposome (LIPGLO) assay) and 0.39 µM at human DGKα (liposome (LIPGLO) assay).

`CC(=O)N1CCOc2c(CN3C[C@H](C)N(c4cc(=O)n(C)c5ccc(C#N)nc45)C[C@H]3C)cccc21` [Example 631]: the results for the IC50 at human DGKζ (liposome (LIPGLO) assay) and at human DGKα (liposome (LIPGLO) assay) were 4.3 µM and 1.4 µM, respectively.

On to `C[C@@H]1CN(c2cc(=O)n(C)c3ccc(C#N)nc23)[C@@H](C)CN1CCc1ccccc1` [Example 632], for which the figures for the 50% inhibitory concentration (IC50) at human DGKζ (liposome (LIPGLO) assay) and on human DGKα (liposome (LIPGLO) assay) were 11 µM and 6.5 µM, respectively.

Turning to `Cc1ccc(CCN2C[C@H](C)N(c3cc(=O)n(C)c4ccc(C#N)nc34)C[C@H]2C)cc1` [Example 633], the half-maximal inhibitory concentration (IC50) on human DGKζ (liposome (LIPGLO) assay) was determined as 10 µM; on human DGKα (liposome (LIPGLO) assay) it was 6.7 µM.

In the case of `C[C@@H]1CN(c2cc(=O)n(C)c3ccc(C#N)nc23)[C@@H](C)CN1Cc1cccc2c1N(C)C(=O)CO2` [Example 635], the IC50 was 150 µM on human DGKζ (liposome (LIPGLO) assay) and 8 µM at human DGKα (liposome (LIPGLO) assay).

In the case of `CC(c1ccc(OC(F)F)cn1)N1C[C@H](C)N(c2cc(=O)n(C)c3ccc(C#N)nc23)C[C@H]1C` (stereo partly shown) [Example 653], the IC50 at human DGKζ (liposome (LIPGLO) assay) came to 1.1 µM; on human DGKα (liposome (LIPGLO) assay) it was 0.094 µM.

For `C[C@@H]1CN(c2cc(=O)n(C)c3ccc(C#N)nc23)[C@@H](C)CN1C(c1ccc(F)cc1)c1cn(C)cn1` (stereo partly shown) [Example 708], the values for the IC50 at human DGKζ (liposome (LIPGLO) assay) and at human DGKα (liposome (LIPGLO) assay) were 37 µM and 1 µM, respectively.

Turning to `C[C@@H]1CN(c2cc(=O)n(C)c3ccc(C#N)nc23)[C@@H](C)CN1C(c1ccc(F)cc1)c1nnc(C2CC2)s1` (stereo partly drawn) [Example 774, 8-((2S,5R)-4-((5-cyclopropyl-1,3,4-thiadiazol-2-yl)(4-fluorophenyl)methyl)-2,5-dimethylpiperazin-1-yl)-5-methyl-6-oxo-5,6-dihydro-1,5-naphthyridine-2-carbonitrile], the half-maximal inhibitory concentration (IC50) at human DGKζ (DGKζ liposome (LIPGLO) assay) was determined as 1.1 µM; on human DGKα (DGKα liposome (LIPGLO) assay) it was 0.63 µM.

Take `C[C@@H]1CN(c2cc(=O)n(C)c3ccc(C#N)nc23)[C@@H](C)CN1C(c1ccc(F)cc1)c1nc(C2CC2)co1` (stereo partly drawn) [Example 776, 8-((2S,5R)-4-((4-cyclopropyloxazol-2-yl)(4-fluorophenyl)methyl)-2,5-dimethylpiperazin-1-yl)-5-methyl-6-oxo-5,6-dihydro-1,5-naphthyridine-2-carbonitrile]: the concentration for half-maximal inhibition (IC50) at human DGKζ (DGKζ liposome (LIPGLO) assay) was 0.038 µM; at human DGKα (DGKα liposome (LIPGLO) assay) it was 0.055 µM.

Take `CC(c1ccc(C(=O)O)cc1)N1C[C@H](C)N(c2c(C#N)c(=O)n(C)c3ccc(C#N)nc23)C[C@H]1C` (stereo partly shown) [Example 786]: the half-inhibitory concentration (IC50) is 83 µM at human DGKζ (DGKζ liposome (LIPGLO) assay) and more than 250 µM at human DGKα (DGKα liposome (LIPGLO) assay).

`CC(c1ccc(C(=O)O)cc1)N1C[C@H](C)N(c2c(C#N)c(=O)n(C)c3ccc(C#N)nc23)C[C@H]1C` (stereo partly shown) [Example 787]: the IC50 at human DGKζ (DGKζ liposome (LIPGLO) assay) came out at 83 µM; at human DGKα (DGKα liposome (LIPGLO) assay) it was 200 µM.

As for `CC(c1ccc(C(F)(F)F)cc1)N1C[C@H](C)N(c2c(C#N)c(=O)n(C)c3ccc(C#N)nc23)C[C@H]1C` (stereo partly shown) [Example 788], the IC50 on human DGKζ (DGKζ liposome (LIPGLO) assay) is more than 250 µM; on human DGKα (DGKα liposome (LIPGLO) assay), 4.8 µM.
